Results: patent US12539301B2, “Compound external preparation for treating alopecia areata and preparation method therefor” (CHANGSHA JINGYI PHARMACEUTICAL TECHNOLOGY CO., LTD, priority 2020, dated 2026)
Where a name gives a salt, the structure may show the parent alone. Read-outs that look alike come from different tables or passages of the source.

Experiments:
[1] = assay type: physicochemical; details: for Dissolution condition: 100 parts per 1 part API, 30 min, heating (60° C.), after cooling
Text: Dissolution condition and dissolution required for quantifying the API in a quantitive solvent were used as preliminary evaluation indexes, and a solvent capable of dissolving both active ingredients is preferred. Icon meaning: x: insoluble (this system is a white opaque suspension with visible white solid particles); ∘: incompletely soluble (this system is partially transparent, with white visible bulk solids or suspended solids); √ completely soluble (the system is a completely transparent solution, without suspended substances and solid insoluble substances); and /: not investigated.

[2] = Solubility and storage stability (crystallization) of tofacitinib in gels and liniments with and without minoxidil; assay type: physicochemical; details: in water and an organic solvent, gel kept stable
Experimental: (1) Different proportions of tofacitinib were set, a mixture of water and an organic solvent was used as a mixed solvent, and a single gel and a compound gel, and a single liniment and a compound liniment were prepared for comparatively investigating dissolved states of tofacitinib in the preparations with and without addition of minoxidil. The samples were stored at the room temperature for 1 month after the preparations were prepared, and stability of tofacitinib was evaluated by whether crystallization occurred or not during the storage.
(2) For an unstable preparation which is easy to precipitate tofacitinib crystals during the storage, adjustments were made by adding an organic solvent component, a surfactant, a crystallization inhibitor, or a thickening agent, increasing an amount of minoxidil, for comparatively investigating improvement of the stability of tofacitinib in the preparations with the above methods.
Solubility: (∘: incompletely soluble; √: completely soluble); and stability: (x: crystallization and precipitation; √: non-crystallization) […]

- Solubility in single solvents (in words) [1]: poor solubility
- Dissolution condition ([1]; Example 16-b: Propylene glycol:water = 1:9 (w/w)): ✓
- Dissolution condition ([1]; Example 16-c: Propylene glycol:water = 3:7 (w/w)): ✓
- Dissolution condition ([1]; Example 16-d: Propylene glycol:water = 5:5 (w/w)): ✓
- Dissolution condition ([1]; Example 16-e: Propylene glycol:water = 7:3 (w/w)): ✓
- Dissolution condition ([1]; Example 16-f: Propylene glycol:water = 9:1 (w/w)): ✓
- Dissolution condition ([1]; Example 17: Propylene glycol:water:ethanol = 5:2:3 (w/w)): ✓
- Amount of tofacitinib (calculated by the prototype) dissolved by minoxidil [2]: 0.05-1.0 times the amount of minoxidil
SMILES: C[C@@H]1CCN(C(=O)CC#N)C[C@@H]1N(C)c1ncnc2[nH]ccc12 [Tofacitinib citrate]
